Experimental data from US10231907B2, “Compositions for improving the health and appearance of skin” (Algenist Holdings, Inc., priority 2006, dated 2019).

Assays:
human PMN leukocytes = assay: PMN migration (chemotaxis chamber, FMLP); type: cell-based; details: 2 ug/ml, mean ± SD
Experimental: Microalgal polysaccharide materials were tested for their ability to influence the migration of polymorphonucelar (PMN) leukocytes in response to chemotractant substances. Leukocyte migration is essential for leukocyte accumulation at sites of inflammation. During the inflammatory response, leukocytes migrate towards the source of a chemotractant substance in a process called chemotaxis. In vitro methods to study chemotaxis often use a membrane based approach, where a chemoattractant is placed on one side of a membrane and PMN leukocytes are placed on the other. Chemotaxis is then measured by quantifying the number of leukocytes which then migrate through the filter towards the chemotractant substance.
For this study, human PMN leukocytes were isolated via density centrifugation from freshly drawn blood. The PMN cells were loaded with a Calcein AM, a fluorescent dye. […] The chemotaxis chamber was be incubated and at the end of the incubation period the fluorescence of the bottom wells was read and used as an index of PMN migration. […]
Heparinized whole blood (20-30 ml) was collected from a healthy human donor, layered over a density gradient (Histopaque 1077 and Histopaque 1119) and centrifuged at 400 g for 30 min. […] After the incubation, the PMN cells were washed twice with PBS, counted and resuspended in RPMI-FCS at 1-5×10^6 cells/ml. […]

elastase = assay: Anti-elastase assay (fibroblast lysate, STANA substrate); type: biochemical, human; details: 100 μM
Experimental: Human dermal fibroblasts were cultured and used as a source of the elastase enzyme. This enzyme was be partially purified from the fibroblasts by lysing the cells in an elastase buffer and retaining the soluble portion of the lysate. Portions of this fibroblast lysate were then be incubated with test materials a synthetic elastase substrate, Suc-(Ala3)-p-Nitroaniline (STANA). Elastase acts upon this substrate to release p-nitroaniline, which is detected with a spectrophotometer by measuring the absorbance at a wavelength of 405 nm. An inhibition of the elastase enzyme is identified by a decrease in the amount of released p-nitroaniline when compared to uninhibited enzyme.
Test material BM was supplied as a powder. 100 mg of BM was combined with either 5 ml of ethanol or 5 ml of ultrapure water in 15 ml centrifuge tubes. […]
After measuring the protein concentration of the lysate, a small sample was obtained and the elastase activity of the lysate was determined at 100%, 50% and 25% concentrations using 2× elastase buffer to make the dilutions. […] After the incubation the well plate was read at 405 nm using a microplate reader. The mean absorbance for each concentration of the lysate was plotted versus its respective concentration. […]

SMILES	Percent of Maximal Migration (human PMN leukocytes) [%]	Percent Inhibition (elastase) [%]
C[C@@H]1[C@H](O)[C@@H](C)/C=C/C=C/C=C/C=C/C=C/C=C/C=C/[C@H](O[C@@H]2O[C@H](C)[C@@H](O)[C@H](N)[C@@H]2O)C[C@@H]2O[C@](O)(C[C@@H](O)C[C@@H](O)[C@H](O)CC[C@@H](O)C[C@@H](O)CC(=O)O[C@H]1C)C[C@H](O)[C@H]2C(=O)O [Amphotericin B]	9.4 ± 0.6	
CC(C)C[C@H](NP(=O)(O)O[C@@H]1O[C@@H](C)[C@H](O)[C@@H](O)[C@H]1O)C(=O)N[C@@H](Cc1c[nH]c2ccccc12)C(=O)O [Phosphoramidon]		94
